Laboratory results taken from patent US20110038957A1, “NOVEL NUTRACEUTICAL COMPOSITIONS CONTAINING STEVIA EXTRACT OR STEVIA EXTRACT CONSTITUENTS AND USES THEREOF” (priority 2007, published 2011).
Read-outs that look alike come from different tables or passages of the source.

Key:
[1] = tested on: adult mice; conditions: systemic administration, adult mice (Kinney et al 2003); cited from earlier work
[2] = tested on: adult mice; conditions: systemic administration (Kinney et al 2003); cited from earlier work
[3] = tested on: NMDA receptor; conditions: mouse hippocampal slice, Schaffer collateral stimulation (Bergeron et al 1998); cited from earlier work
[4] = tested on: NMDA receptor; conditions: rat hippocampal slice, Schaffer collateral stimulation (Bergeron et al 1998); cited from earlier work
[5] = biological target: T1, human glycine transporter 1b (GlyT1) (Homo sapiens, UniProt P48067); assay: Inhibition of glycine transporter 1 in a cellular assay ([3H]-glycine uptake into CHO cells); assay type: cell-based; conditions: pure compounds, CHO cells expressing GlyT1, 60 nM [3H]-glycine, 30 minutes, room temperature; for IC50: read-out: IC50 for tritiated glycine uptake
T1 construct: expressed in transfected cells
T1 sequence (P48067 1-652 isoform P48067-3): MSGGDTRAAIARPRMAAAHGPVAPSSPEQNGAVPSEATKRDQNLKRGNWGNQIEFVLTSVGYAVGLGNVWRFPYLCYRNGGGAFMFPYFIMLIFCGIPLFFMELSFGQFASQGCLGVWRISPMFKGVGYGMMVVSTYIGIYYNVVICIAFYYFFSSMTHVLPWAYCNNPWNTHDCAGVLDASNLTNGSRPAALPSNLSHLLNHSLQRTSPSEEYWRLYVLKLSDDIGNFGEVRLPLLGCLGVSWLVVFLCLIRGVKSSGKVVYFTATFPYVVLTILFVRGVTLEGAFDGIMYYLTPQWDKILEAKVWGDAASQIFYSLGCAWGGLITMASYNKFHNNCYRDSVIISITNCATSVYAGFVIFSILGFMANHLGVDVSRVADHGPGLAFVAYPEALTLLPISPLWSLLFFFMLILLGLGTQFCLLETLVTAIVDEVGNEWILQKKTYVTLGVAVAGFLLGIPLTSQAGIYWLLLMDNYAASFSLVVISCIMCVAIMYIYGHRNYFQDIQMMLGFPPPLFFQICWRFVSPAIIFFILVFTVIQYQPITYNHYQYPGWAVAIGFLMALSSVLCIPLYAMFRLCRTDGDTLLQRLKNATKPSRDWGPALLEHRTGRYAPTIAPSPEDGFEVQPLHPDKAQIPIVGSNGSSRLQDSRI
Experimental: CHO cells stably expressing the human glycine transporter 1b cDNA (GlyT1) were routinely grown in Dulbecco's Modified Eagle's Medium (Invitrogen, Carlsbad, USA) containing 10% dialysed foetal calf serum, penicillin, streptomycin, proline and the antibiotic G418. Cells were harvested by trypsinisation one day prior to the assay and were seeded in the above mentioned medium. Immediately prior to the assay, the medium was replaced by uptake buffer containing 150 mM NaCl, 1 mM CaCl2, 2.5 mM KCl, 2.5 mM MgCl2, 10 mM Glucose and 10 mM N-2-hydroxyethylpiperazine-N′-2-ethanesulfonic acid (HEPES buffer).
Glycine uptake into the cells was determined by addition of 60 nM radio-labelled [^3H]-glycine (Amersham Biosciences GE Healthcare, Slough, UK) and incubation for 30 minutes at room temperature. Following removal of unincorporated label by gentle washing three times with the above buffer, incorporated glycine was quantified by liquid scintillation counting.

[6] = tested on: pCREB (activated form of the cAMP response element binding protein); assay: Hippocampal slice cultures, immunohistochemistry of synaptic marker pCREB; assay type: cell-based, Wistar rats; design: key: ++++ shows a qualitative maximal activation; ++ and + signify a half-maximum and a moderate activation, respectively; ++ and + signify a half-maximum and a moderate activation, respectively; ± indicates no change in immunoreactivity; conditions: 15 min treatment after 48 h in culture; vs sister cultures treated with buffer
Experimental: (§1) Seven-day-old Wistar rats were decapitated using a guillotine. In less than 1 minute the skull was opened, the cerebral hemispheres were separated and transferred and both hippocampi were dissected and transferred into ice-cold buffer containing 137 mM NaCl, 5 mM KCl, 0.85 mM Na2HPO4, 1.5 mM CaCl2, 0.66 mM KH2PO4, 0.28 mM MgSO4, 1 mM MgCl2, 2.7 mM NaHCO3, 1 mM Kynurenic acid and 0.6% D-glucose. Transverse hippocampal slices (400 μm) were prepared using a vibrating blade microtome (VT1200S; Leica Microsystems (Schweiz) AG, Heerbrugg, Switzerland) in the same buffer. Hippocampal slices were individually placed on membrane inserts (Millicell Culture Plate Inserts, 0.4 μm) and cultivated at 35° C., 5% CO2, 95% humidity in a medium containing a 1:1 mixture of BME and MEM (both from Invitrogen) containing 25% heat-inactivated horse serum, 1× GlutaMAX, 1× Penicillin/Streptomycin, 0.6% glucose and 1 mM Kynurenic acid (Stoppini 1991 J. Neurosci. Methods 37(2):173-82). After 48 h in culture, synaptic NMDA receptors were activated by addition of Stevia extract, its major constituents or control substances for 15 min in 140 mM NaCl, 5 mM KCl, 1.3 mM CaCl2, 25 mM HEPES (pH 7.3), 33 mM D-glucose and 0.02 mM bicuculline methiodide. […] An additional positive control comprised the addition of 200 μM glycine to sister cultures. After the treatments, sections were washed and fixed for immunohistochemistry. Markers of enhanced synaptic activity, normally associated with long-term potentiation, representing an ex vivo model of learning and memory were quantitated (see Table 3, below). Treatment of hippocampal cultures with Stevia extract, steviol, isosteviol and stevioside induced one or more biochemical markers typical for LTP (pCREB: activated form of the cAMP response element binding protein; pMAPK: activated form of the mitogen-activated protein kinase; […]

[7] = tested on: GluR1 (cell surface presence of AMPA receptor 1); assay: Hippocampal slice cultures, immunohistochemistry of synaptic marker GluR1; assay type: cell-based, Wistar rats; design: key to GluR1, relative activation of synaptic marker: ++++ shows a qualitative maximal activation; ++ and + signify a half-maximum and a moderate activation, respectively; ++ and + signify a half-maximum and a moderate activation, respectively; ± indicates no change in immunoreactivity; conditions: 15 min treatment after 48 h in culture; vs sister cultures treated with buffer
Experimental: as §1

[8] = tested on: pMAPK (activated form of the mitogen-activated protein kinase); assay: Hippocampal slice cultures, immunohistochemistry of synaptic marker pMAPK; assay type: cell-based, Wistar rats; design: key: ++++ shows a qualitative maximal activation; ++ and + signify a half-maximum and a moderate activation, respectively; ++ and + signify a half-maximum and a moderate activation, respectively; ± indicates no change in immunoreactivity; conditions: 15 min treatment after 48 h in culture; vs sister cultures treated with buffer
Experimental: as §1

Molecule | IC50 for tritiated glycine uptake [5] | pCREB, relative activation of synaptic marker [6] | pMAPK, relative activation of synaptic marker [8] | also measured
CN(CCC(Oc1ccc(-c2ccccc2)cc1)c1ccc(F)cc1)CC(=O)O (stereo not shown) [NFPS, N-[3-(4′-fluorophenyl)-3-(4′-phenylphenoxy)] propylsarcosine] |  |  |  | Prepulse inhibition of the acoustic startle response [1]: enhanced prepulse inhibition of the acoustic startle response; LTP in the dentate gyrus [2]: increased LTP in the dentate gyrus; NMDA receptor responses in CA1 pyramidal cells [3]: enhanced NMDA receptor responses in CA1 pyramidal cells were observed; NMDA receptor responses in CA1 pyramidal cells [4]: enhanced NMDA receptor responses in CA1 pyramidal cells were observed
CN(CC[C@@H](Oc1ccc(C(F)(F)F)cc1)c1ccccc1)CC(=O)O [ORG24598, reference compound] |  |  |  | IC50 [5]: 0.02 µM
CNCC(=O)O [Sarcosine, reference compound] |  |  |  | IC50 [5]: 35.9 µM
C=C1C[C@@]23CC[C@H]4[C@@](C)(CCC[C@@]4(C)C(=O)O)[C@@H]2CC[C@]1(O)C3 [Steviol] | inactive | ++ | ± | GluR1, percentage increase of control values [7]: 340%
Isosteviol | inactive | + | ± | GluR1, percentage increase of control values [7]: 361%

Now from value to molecule, other results behind:

IC50 for tritiated glycine uptake [5] | Molecule | pCREB, relative activation of synaptic marker [6] | pMAPK, relative activation of synaptic marker [8] | also measured
inactive | C=C1C[C@@]23CC[C@H]4[C@@](C)(CCC[C@@]4(C)C(=O)O[C@@H]4O[C@H](CO)[C@@H](O)[C@H](O)[C@H]4O)[C@@H]2CC[C@]1(O[C@@H]1O[C@H](CO)[C@@H](O)[C@H](O[C@@H]2O[C@H](CO)[C@@H](O)[C@H](O)[C@H]2O)[C@H]1O[C@@H]1O[C@H](CO)[C@@H](O)[C@H](O)[C@H]1O)C3 [Rebaudioside A] | ± | ± | GluR1, relative activation of synaptic marker [7]: ±
inactive | C=C1C[C@@]23CC[C@H]4[C@@](C)(CCC[C@@]4(C)C(=O)O[C@@H]4O[C@H](CO)[C@@H](O)[C@H](O)[C@H]4O)[C@@H]2CC[C@]1(O[C@@H]1O[C@H](CO)[C@@H](O)[C@H](O)[C@H]1O[C@@H]1O[C@H](CO)[C@@H](O)[C@H](O)[C@H]1O)C3 [Stevioside] | ± | ++ | GluR1, relative activation of synaptic marker [7]: ±
